One data set concerns the target T1, hFAP (Homo sapiens, UniProt Q12884).
T1 sequence (Q12884 38-760): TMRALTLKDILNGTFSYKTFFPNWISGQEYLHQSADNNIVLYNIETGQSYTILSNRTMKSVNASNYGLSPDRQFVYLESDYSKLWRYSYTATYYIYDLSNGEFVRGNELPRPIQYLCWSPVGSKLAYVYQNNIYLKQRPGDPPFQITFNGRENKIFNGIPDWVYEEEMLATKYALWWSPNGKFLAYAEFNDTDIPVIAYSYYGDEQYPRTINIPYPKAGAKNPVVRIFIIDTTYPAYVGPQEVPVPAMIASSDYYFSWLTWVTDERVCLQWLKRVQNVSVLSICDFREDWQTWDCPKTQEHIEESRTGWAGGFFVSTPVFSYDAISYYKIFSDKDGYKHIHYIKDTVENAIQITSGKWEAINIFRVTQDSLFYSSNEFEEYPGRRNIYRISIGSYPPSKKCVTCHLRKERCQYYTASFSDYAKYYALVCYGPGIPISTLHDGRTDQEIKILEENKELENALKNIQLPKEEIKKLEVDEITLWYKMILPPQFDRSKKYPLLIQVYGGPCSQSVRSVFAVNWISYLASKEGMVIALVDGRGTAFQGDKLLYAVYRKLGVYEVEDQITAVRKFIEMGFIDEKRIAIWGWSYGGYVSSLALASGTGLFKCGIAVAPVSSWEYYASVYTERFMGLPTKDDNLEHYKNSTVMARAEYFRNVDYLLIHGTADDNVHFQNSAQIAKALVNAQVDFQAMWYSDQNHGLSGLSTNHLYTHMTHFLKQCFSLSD
The experiment in a line: biochemical.

A short description of another data set: Kinetic solubility. The data set is classed as physicochemical. The conditions noted are these: kinetic from dmso stock, n = 1 or average (n = 2-4). On the procedure: Kinetic solubility was measured as described in Comput Aided Mol Des 2015, 29, 795.
Data set [1] is described as follows: Metabolic stability in human liver microsomes (HLM). The data set is classed as in vitro ADME. The conditions noted are these: n = 1 or average (n = 2-3). On the procedure:
Metabolic stability in HLM was measured as described in J Comput Aided Mol Des 2015, 29, 795.

The next data set has as its system Rat Hepatocytes (rHep). Description: Metabolic stability in rat hepatocytes (rHep). In kind it is in vitro ADME. The conditions noted are these: n = 1 or geometric mean (n = 2-3). On the procedure:
Metabolic stability in rat hepatocytes was measured as described in J Comput Aided Mol Des 2015, 29, 795.

Another data set has as its target T2, hFAP (M39-A757) (Homo sapiens, UniProt Q12884).
T2 sequence (Q12884 39-757): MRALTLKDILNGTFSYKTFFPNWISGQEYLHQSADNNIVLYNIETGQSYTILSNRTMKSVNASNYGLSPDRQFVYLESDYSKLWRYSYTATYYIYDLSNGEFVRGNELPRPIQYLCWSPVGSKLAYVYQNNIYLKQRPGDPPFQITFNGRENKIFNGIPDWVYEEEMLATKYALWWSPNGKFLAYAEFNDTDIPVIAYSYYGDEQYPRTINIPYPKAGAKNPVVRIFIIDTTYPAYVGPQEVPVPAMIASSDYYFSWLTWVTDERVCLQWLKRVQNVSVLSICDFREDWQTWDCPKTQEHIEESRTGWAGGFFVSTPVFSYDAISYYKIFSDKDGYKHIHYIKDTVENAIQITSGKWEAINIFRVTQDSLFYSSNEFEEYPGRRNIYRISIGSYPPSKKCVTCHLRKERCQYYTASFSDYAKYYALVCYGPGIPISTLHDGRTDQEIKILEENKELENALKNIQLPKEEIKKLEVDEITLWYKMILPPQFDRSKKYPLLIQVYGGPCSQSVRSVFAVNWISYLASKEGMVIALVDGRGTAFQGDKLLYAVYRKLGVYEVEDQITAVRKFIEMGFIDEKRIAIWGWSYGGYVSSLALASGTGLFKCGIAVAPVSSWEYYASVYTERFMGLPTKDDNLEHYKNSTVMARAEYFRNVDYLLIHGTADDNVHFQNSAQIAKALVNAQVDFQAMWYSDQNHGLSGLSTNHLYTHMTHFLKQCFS
The experiment in a line: biochemical.

Data set [2] deals with T3, Prolyl endopeptidase, Prolyl Oligopeptidase (hPREP) (Homo sapiens, UniProt P48147).
T3 sequence (P48147 1-710): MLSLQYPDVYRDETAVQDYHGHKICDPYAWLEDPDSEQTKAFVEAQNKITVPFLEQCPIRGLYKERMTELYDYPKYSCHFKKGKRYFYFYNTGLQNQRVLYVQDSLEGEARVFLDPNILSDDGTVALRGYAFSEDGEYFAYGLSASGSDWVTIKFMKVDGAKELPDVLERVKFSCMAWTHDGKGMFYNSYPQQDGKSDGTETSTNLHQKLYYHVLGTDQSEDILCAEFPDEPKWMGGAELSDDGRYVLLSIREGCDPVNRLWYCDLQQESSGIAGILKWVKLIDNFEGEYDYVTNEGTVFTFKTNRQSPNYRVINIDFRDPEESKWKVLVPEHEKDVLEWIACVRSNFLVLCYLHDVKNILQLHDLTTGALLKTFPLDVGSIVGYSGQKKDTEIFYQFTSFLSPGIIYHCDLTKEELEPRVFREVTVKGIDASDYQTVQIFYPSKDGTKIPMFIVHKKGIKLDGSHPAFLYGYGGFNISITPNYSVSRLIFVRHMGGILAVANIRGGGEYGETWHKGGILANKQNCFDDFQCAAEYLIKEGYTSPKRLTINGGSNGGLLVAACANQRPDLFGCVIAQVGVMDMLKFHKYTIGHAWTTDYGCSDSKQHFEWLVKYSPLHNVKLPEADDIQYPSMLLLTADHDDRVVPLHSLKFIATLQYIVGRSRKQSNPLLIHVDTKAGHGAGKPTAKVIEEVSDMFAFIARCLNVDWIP
Description: biochemical.

Data set [3] is described as follows: Caco-2 bidirectional (ABBA) permeability. The following applies: human. In kind it is in vitro ADME. The protocol: Caco-2 cell permeability was measured as described in Mol Pharm 2017, 14, 1601.

Molecules are shown by their SMILES. Converted amounts (≈) assume the structure as drawn. Some results are limits rather than exact numbers.

This note sets out measurements from patent publication US20260070899A1, “N-(2-(4-CYANOTHIAZOLIDIN-3-YL)-2-OXOETHYL)-QUINOLINE-4-CARBOXAMIDES” (AstraZeneca AB, priority 2022, published 2026).
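Throughout, for Kd: surface plasmon resonance direct binding to hFAP amine-coupled on a sensor chip, rising compound concentrations by single cycle kinetics, Kd from global fit of interaction models.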

For the molecule `Cc1cc(Cc2ccc3nccc(C(=O)NCC(=O)N4CSC[C@H]4C#N)c3c2)n(C)n1` [Example 40, (R)—N-(2-(4-Cyanothiazolidin-3-yl)-2-oxoethyl)-6-((1,3-dimethyl-1H-pyrazol-5-yl)methyl)quinoline-4-carboxamide], the IC50 against hFAP came out at 0.25 nM; in data set [2], 600 nM. This molecule registered a solubility in “Kinetic solubility” of over 1000 µM. The molecule further displayed a microsomal CLint in data set [1] of 29 µL/min/mg. Besides, the “rHeps CLint” value in the data set with Rat Hepatocytes (rHep) was determined as 21 μL/min/1E6. The molecule further came in with a Kd on hFAP (M39-A757) of 0.13 nM.
Turning to `Cc1cc(Cc2ccc3nccc(C(=O)NCC(=O)N4CSC[C@H]4C#N)c3c2)no1` [Example 42, (R)—N-(2-(4-Cyanothiazolidin-3-yl)-2-oxoethyl)-6-((5-methylisoxazol-3-yl)methyl)quinoline-4-carboxamide], the IC50 was found to be 0.27 nM against hFAP and 180 nM in data set [2]. This molecule registered a solubility in the data set “Kinetic solubility” of 190 µM (≈ 80.1 µg/mL). The microsomal CLint in data set [1] is 12 µL/min/mg. In addition, in the data set on Rat Hepatocytes (rHep), the “rHeps CLint” value was 23 μL/min/1E6. On hFAP (M39-A757), this molecule displayed a Kd of 0.2 nM.
As to `Cc1ccc(C2(c3ccc4nccc(C(=O)NCC(=O)N5CSC[C@H]5C#N)c4c3)CC2)cn1` [Example 43, (R)—N-(2-(4-Cyanothiazolidin-3-yl)-2-oxoethyl)-6-(1-(6-methylpyridin-3-yl)cyclopropyl)quinoline-4-carboxamide], the IC50 is 0.094 nM against hFAP and 370 nM in data set [2]. For the same molecule, the solubility in “Kinetic solubility” came out at 60 µM (≈ 27.5 µg/mL). In data set [1], this molecule returned a microsomal CLint of 100 µL/min/mg. Further, the “rHeps CLint” value in the data set on Rat Hepatocytes (rHep) came to 78 μL/min/1E6. The affinity at hFAP (M39-A757), expressed as Kd, was 0.39 nM.
`N#C[C@@H]1CSCN1C(=O)CNC(=O)c1ccnc2ccc(C3(C#N)CCOCC3)cc12` [Example 59, (R)-6-(4-Cyanotetrahydro-2H-pyran-4-yl)-N-(2-(4-cyanothiazolidin-3-yl)-2-oxoethyl)quinoline-4-carboxamide]: the concentration in solution in the data set “Kinetic solubility” (solubility) came to 480 µM (≈ 209 µg/mL). The molecule also returned a microsomal CLint in data set [1] of 30 µL/min/mg. In addition, the “rHeps CLint” value in the data set with Rat Hepatocytes (rHep) is listed as 20 μL/min/1E6. This molecule also registered an IC50 in data set [2] of 430 nM. Besides, in data set [3] (A to B, n = 1 or average (n = 2), read-out: Caco2 Bidirectional (ABBA) A to B Papp), the Papp A→B came to 0.24 ×10⁻⁶ cm/s. The Papp B→A in data set [3] (B to A, n = 1 or average (n = 2), read-out: Caco2 Bidirectional (ABBA) B to A Papp) turned out to be 21 ×10⁻⁶ cm/s. For the same molecule, in data set [3] (read-out: Caco2 Bidirectional (ABBA) Efflux Ratio), the efflux ratio stood at 90.
As to `N#C[C@@H]1CSCN1C(=O)CNC(=O)c1ccnc2ccc(C(F)F)cc12` [Example 71, (R)—N-(2-(4-Cyanothiazolidin-3-yl)-2-oxoethyl)-6-(difluoromethyl)-quinoline-4-carboxamide], the figures for the IC50 (at hFAP; in data set [2]) were 0.43 nM and 15 nM, respectively. In the data set “Kinetic solubility”, the solubility is over 1000 µM. The molecule further registered a microsomal CLint in data set [1] of 16 µL/min/mg. The “rHeps CLint” value in the data set with Rat Hepatocytes (rHep) was found to be 8.7 μL/min/1E6. Also, at hFAP (M39-A757), the Kd stood at 0.4 nM.
As to `COCCCOc1ccc(-c2ccc3nccc(C(=O)NCC(=O)N4CSC[C@H]4C#N)c3c2)cc1` [Example 72, (R)—N-(2-(4-Cyanothiazolidin-3-yl)-2-oxoethyl)-6-(4-(3-methoxy-propoxy)phenyl)quinoline-4-carboxamide], the IC50 against hFAP amounted to 0.2 nM; in data set [2] it was 540 nM. Moreover, the concentration in solution in “Kinetic solubility” (solubility) came to 14 µM (≈ 6.87 µg/mL). Also, the microsomal CLint in data set [1] came out at 63 µL/min/mg. For the same molecule, the “rHeps CLint” value in the data set with Rat Hepatocytes (rHep) turned out to be 18 μL/min/1E6. For the same molecule, the Kd at hFAP (M39-A757) turned out to be 0.013 nM.
As to `CCOC1(c2ccc3nccc(C(=O)NCC(=O)N4CSC[C@H]4C#N)c3c2)CC1` [Example 76, (R)—N-(2-(4-Cyanothiazolidin-3-yl)-2-oxoethyl)-6-(1-ethoxycyclopropyl)quinoline-4-carboxamide], the values for the IC50 (on hFAP; in data set [2]) were 1.3 nM and 580 nM, respectively. The same molecule came in with a solubility in “Kinetic solubility” of 900 µM (≈ 369 µg/mL). This molecule gave a microsomal CLint in data set [1] of 140 µL/min/mg. Also, in the data set with Rat Hepatocytes (rHep), the “rHeps CLint” value was determined as 34 μL/min/1E6. Moreover, on hFAP (M39-A757), the Kd turned out to be 2 nM.
Regarding `N#C[C@@H]1CSCN1C(=O)CNC(=O)c1ccnc2ccc(C3CC3)cc12` [Example 77, (R)—N-(2-(4-Cyanothiazolidin-3-yl)-2-oxoethyl)-6-cyclopropylquinoline-4-carboxamide], the IC50 at hFAP was determined as 0.59 nM; in data set [2], 38 nM. Besides, the solubility in “Kinetic solubility” turned out to be 470 µM (≈ 172 µg/mL). Besides, the microsomal CLint in data set [1] was 58 µL/min/mg. Further, the “rHeps CLint” value in the data set on Rat Hepatocytes (rHep) amounted to 44 μL/min/1E6. In addition, the Kd at hFAP (M39-A757) is 1.4 nM.
